This test addresses hNav1.7 (Homo sapiens, UniProt Q15858). Briefly: cell-based.

SMILES strings stand for the structures. Read-outs that look alike come from different tables or passages of the source. Positions of bridges follow the written chain, without caps; N, C: chain ends. Non-standard residues stand in square brackets, D forms with d. Residues, ends and D or L forms follow the SMILES beside them. *: point of attachment. Biotin = O=C1N[C@H]2[C@H](CS[C@H]2CCCCC(=O)*)N1; Abu = CC[C@H](N)C(=O)O; Ahx = NCCCCCC(=O)O

hNav1.7, sequence (Q15858 whole entry, looked up): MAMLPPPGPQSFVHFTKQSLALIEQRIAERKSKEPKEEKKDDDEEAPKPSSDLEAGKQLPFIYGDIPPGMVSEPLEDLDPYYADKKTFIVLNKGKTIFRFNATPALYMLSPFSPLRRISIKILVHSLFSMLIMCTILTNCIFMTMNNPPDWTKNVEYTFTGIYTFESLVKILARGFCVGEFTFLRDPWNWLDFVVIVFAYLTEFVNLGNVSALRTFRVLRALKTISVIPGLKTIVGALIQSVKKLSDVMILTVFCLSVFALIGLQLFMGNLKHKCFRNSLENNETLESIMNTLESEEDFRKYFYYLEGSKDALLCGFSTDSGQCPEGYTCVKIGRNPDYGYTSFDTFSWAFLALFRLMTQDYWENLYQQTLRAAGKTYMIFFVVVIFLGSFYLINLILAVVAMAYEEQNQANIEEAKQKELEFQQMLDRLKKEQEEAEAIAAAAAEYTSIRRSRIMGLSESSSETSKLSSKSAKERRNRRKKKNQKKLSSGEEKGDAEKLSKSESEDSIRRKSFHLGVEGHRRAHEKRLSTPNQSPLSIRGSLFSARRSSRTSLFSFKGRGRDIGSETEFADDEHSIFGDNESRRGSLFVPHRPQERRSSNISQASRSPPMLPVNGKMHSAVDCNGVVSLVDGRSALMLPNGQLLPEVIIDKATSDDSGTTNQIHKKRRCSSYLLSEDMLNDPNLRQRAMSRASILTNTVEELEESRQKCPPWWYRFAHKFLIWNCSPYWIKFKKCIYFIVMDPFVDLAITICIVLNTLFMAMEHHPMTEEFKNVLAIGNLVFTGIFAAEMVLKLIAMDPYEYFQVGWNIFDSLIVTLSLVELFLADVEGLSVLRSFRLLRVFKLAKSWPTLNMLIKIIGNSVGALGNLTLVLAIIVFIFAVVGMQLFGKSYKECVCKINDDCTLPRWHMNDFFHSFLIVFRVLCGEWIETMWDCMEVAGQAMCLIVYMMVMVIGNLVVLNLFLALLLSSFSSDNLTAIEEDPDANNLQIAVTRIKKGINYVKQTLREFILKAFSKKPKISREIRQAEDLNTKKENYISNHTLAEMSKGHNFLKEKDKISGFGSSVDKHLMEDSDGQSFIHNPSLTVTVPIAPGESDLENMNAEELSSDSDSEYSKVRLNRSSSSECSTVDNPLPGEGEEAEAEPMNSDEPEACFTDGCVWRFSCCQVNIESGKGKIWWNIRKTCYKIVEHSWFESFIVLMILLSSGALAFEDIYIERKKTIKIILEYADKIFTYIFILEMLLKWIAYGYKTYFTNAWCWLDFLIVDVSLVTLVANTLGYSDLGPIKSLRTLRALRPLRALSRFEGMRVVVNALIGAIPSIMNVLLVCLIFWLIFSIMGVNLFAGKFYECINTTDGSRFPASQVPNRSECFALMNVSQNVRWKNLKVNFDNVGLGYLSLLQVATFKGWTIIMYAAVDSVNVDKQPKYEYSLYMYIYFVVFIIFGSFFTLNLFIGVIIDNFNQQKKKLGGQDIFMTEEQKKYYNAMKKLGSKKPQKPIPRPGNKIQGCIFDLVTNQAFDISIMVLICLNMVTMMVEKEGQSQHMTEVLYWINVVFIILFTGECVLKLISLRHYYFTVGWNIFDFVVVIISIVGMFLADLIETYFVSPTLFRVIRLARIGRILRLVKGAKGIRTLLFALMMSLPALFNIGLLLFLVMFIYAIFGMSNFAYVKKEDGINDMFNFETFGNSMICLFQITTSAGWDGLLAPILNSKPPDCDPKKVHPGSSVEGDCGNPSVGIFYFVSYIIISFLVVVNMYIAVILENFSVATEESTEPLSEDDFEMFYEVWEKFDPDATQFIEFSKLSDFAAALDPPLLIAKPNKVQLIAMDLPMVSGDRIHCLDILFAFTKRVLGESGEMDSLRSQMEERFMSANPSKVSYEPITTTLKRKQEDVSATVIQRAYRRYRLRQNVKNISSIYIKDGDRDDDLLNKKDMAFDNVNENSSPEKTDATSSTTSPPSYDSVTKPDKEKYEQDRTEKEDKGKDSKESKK

For `CSCC[C@@H]1NC(=O)[C@H](Cc2ccccc2)NC(=O)CNC(=O)[C@H](CC(C)C)NC(=O)[C@@H](NC(=O)[C@@H](N)CC(=O)O)CSSC[C@@H]2NC(=O)[C@@H]3CSSC[C@@H](C(=O)N[C@@H](CCCCN)C(=O)N[C@@H](Cc4ccc(O)cc4)C(=O)N[C@H](C(=O)N[C@@H](Cc4ccccc4)C(N)=O)C(C)C)NC(=O)[C@H](Cc4c[nH]c5ccccc45)NC(=O)[C@H](CCCCN)NC(=O)[C@H](Cc4cnc[nH]4)NC(=O)[C@H]([C@@H](C)O)NC(=O)[C@H](CCCNC(=N)N)NC(=O)[C@H](CO)NC(=O)[C@H](CSSC[C@H](NC(=O)[C@H](CCCCN)NC(=O)[C@H](CCCNC(=N)N)NC1=O)C(=O)N[C@@H](CC(N)=O)C(=O)N1CCC[C@H]1C(=O)N[C@@H](CC(=O)O)C(=O)N[C@@H](CC(N)=O)C(=O)N[C@@H](CC(=O)O)C(=O)N[C@@H](CCCCN)C(=O)N3)NC(=O)[C@H](C(C)C)NC(=O)[C@H](CC(C)C)NC(=O)[C@H](CC(N)=O)NC(=O)[C@@H]1CCCN1C(=O)[C@H](CCCNC(=N)N)NC2=O` [[Asn10]GpTx-1(1-34)] (H-DCLGFMRKCNPDNDKCCRPNLVCSRTHKWCKYVF-NH2; disulfide 2-17, 9-23, 16-30), the IC50 (Nav1.7 Use IC50) worked out at 2 nM.
Regarding `CC[C@H](C)[C@@H]1NC(=O)[C@@H]2CSSC[C@@H]3NC(=O)[C@H](C(C)C)NC(=O)[C@H](CC(C)C)NC(=O)[C@H](CC(N)=O)NC(=O)[C@@H]4CCCN4C(=O)[C@H](CCCNC(=N)N)NC(=O)[C@H](CSSC[C@H](NC(=O)[C@@H](N)CC(=O)O)C(=O)N[C@@H](CC(C)C)C(=O)N[C@@H](CCCNC(=N)N)C(=O)N[C@@H](Cc4ccccc4)C(=O)N[C@@H](CCSC)C(=O)N[C@@H](CCCNC(=N)N)C(=O)N[C@@H](CCCCN)C(=O)N2)NC(=O)[C@H](CSSC[C@@H](C(=O)N[C@@H](CCCCN)C(=O)N[C@@H](Cc2ccc(O)cc2)C(=O)N[C@H](C(=O)N[C@@H](Cc2ccccc2)C(N)=O)C(C)C)NC(=O)[C@H](Cc2c[nH]c4ccccc24)NC(=O)[C@H](CCCCN)NC(=O)[C@H](Cc2c[nH]cn2)NC(=O)[C@H]([C@@H](C)O)NC(=O)[C@H](CCCNC(=N)N)NC(=O)[C@H](CO)NC3=O)NC(=O)[C@H](CCCCN)NC(=O)[C@H](CC(=O)O)NC(=O)[C@H](CC(N)=O)NC(=O)[C@H](CC(=O)O)NC(=O)[C@@H]2CCCN2C1=O` [SEQ ID NO: 63] (H-DCLRFMRKCIPDNDKCCRPNLVCSRTHKWCKYVF-NH2; disulfide 2-17, 9-23, 16-30), the IC50 (read-out: Nav1.7 Use IC50) stood at 3 nM.
For the compound `CC[C@@H]1NC(=O)CNC(=O)[C@H](CC(C)C)NC(=O)[C@@H](NC(=O)[C@H](CC(=O)O)NC(=O)CCCCCNC(=O)CCCC[C@@H]2SC[C@@H]3NC(=O)N[C@@H]32)CSSC[C@@H]2NC(=O)[C@@H]3CSSC[C@@H](C(=O)N[C@@H](CCCCN)C(=O)N[C@@H](Cc4ccc(O)cc4)C(=O)N[C@H](C(=O)N[C@@H](Cc4ccccc4)C(N)=O)C(C)C)NC(=O)[C@H](Cc4c[nH]c5ccccc45)NC(=O)[C@H](CCCNC(=N)N)NC(=O)[C@H](Cc4c[nH]cn4)NC(=O)[C@H]([C@@H](C)O)NC(=O)[C@H](CCCNC(=N)N)NC(=O)[C@H](CO)NC(=O)[C@H](CSSC[C@H](NC(=O)[C@H](CCCCN)NC(=O)[C@H](CCCNC(=N)N)NC(=O)[C@H](CC(C)C)NC1=O)C(=O)N[C@@H]([C@@H](C)CC)C(=O)N1CCC[C@H]1C(=O)N[C@@H](CC(=O)O)C(=O)N[C@@H](CC)C(=O)N[C@@H](CC(=O)O)C(=O)N[C@@H](CCCCN)C(=O)N3)NC(=O)[C@H](C(C)C)NC(=O)[C@H](CC(C)C)NC(=O)[C@H](CC(N)=O)NC(=O)[C@@H]1CCCN1C(=O)[C@H](CCCNC(=N)N)NC2=O` ({Biotin-Ahx}-DCLG[Abu]LRKCIPD[Abu]DKCCRPNLVCSRTHRWCKYVF-NH2; disulfide 2-17, 9-23, 16-30), the “Nav1.4/Nav1.7 Use” value came to 2482 and the “Nav1.5/Nav1.7 Use” value is greater than 909.
With `CC[C@H](C)[C@@H]1NC(=O)[C@@H]2CSSC[C@@H]3NC(=O)[C@H](C(C)C)NC(=O)[C@H](CC(C)C)NC(=O)[C@H](CC(N)=O)NC(=O)[C@@H]4CCCN4C(=O)[C@H](CCCNC(=N)N)NC(=O)[C@H](CSSC[C@H](NC(=O)[C@@H](N)CC(=O)O)C(=O)N[C@@H](CC(C)C)C(=O)NCC(=O)N[C@@H](Cc4ccccc4)C(=O)N[C@@H](CCSC)C(=O)N[C@@H](CCCNC(=N)N)C(=O)N[C@@H](CCCCN)C(=O)N2)NC(=O)[C@H](CSSC[C@@H](C(=O)N[C@@H](CCCCN)C(=O)N[C@@H](Cc2ccc(O)cc2)C(=O)N[C@H](C(=O)N[C@@H](Cc2ccccc2)C(N)=O)C(C)C)NC(=O)[C@H](Cc2c[nH]c4ccccc24)NC(=O)[C@H](CCC(N)=O)NC(=O)[C@H](Cc2c[nH]cn2)NC(=O)[C@H]([C@@H](C)O)NC(=O)[C@H](CCCNC(=N)N)NC(=O)[C@H](CO)NC3=O)NC(=O)[C@H](CCCCN)NC(=O)[C@H](CC(=O)O)NC(=O)[C@H](CC(N)=O)NC(=O)[C@H](CC(=O)O)NC(=O)[C@@H]2CCCN2C1=O` [[Gln28]GpTx-1(1-34)] (H-DCLGFMRKCIPDNDKCCRPNLVCSRTHQWCKYVF-NH2; disulfide 2-17, 9-23, 16-30), for the setting “read-out: Nav1.7 Use IC50”, the IC50 was 4 nM.
For the compound `CSCC[C@@H]1NC(=O)[C@H](Cc2ccccc2)NC(=O)CNC(=O)[C@H](CC(C)C)NC(=O)[C@@H](NC(=O)[C@@H](N)CC(=O)O)CSSC[C@@H]2NC(=O)[C@@H]3CSSC[C@@H](C(=O)N[C@@H](CCCCN)C(=O)N[C@@H](Cc4ccc(O)cc4)C(=O)N[C@H](C(=O)N[C@@H](Cc4ccccc4)C(N)=O)C(C)C)NC(=O)[C@H](Cc4c[nH]c5ccccc45)NC(=O)[C@H](CCCCN)NC(=O)[C@H](Cc4cnc[nH]4)NC(=O)[C@H]([C@@H](C)O)NC(=O)[C@H](CCCNC(=N)N)NC(=O)[C@H](CO)NC(=O)[C@H](CSSC[C@H](NC(=O)[C@H](CCCCN)NC(=O)[C@H](CCCNC(=N)N)NC1=O)C(=O)N[C@@H](CCC(=O)O)C(=O)N1CCC[C@H]1C(=O)N[C@@H](CC(=O)O)C(=O)N[C@@H](CC(N)=O)C(=O)N[C@@H](CC(=O)O)C(=O)N[C@@H](CCCCN)C(=O)N3)NC(=O)[C@H](C(C)C)NC(=O)[C@H](CC(C)C)NC(=O)[C@H](CC(N)=O)NC(=O)[C@@H]1CCCN1C(=O)[C@H](CCCNC(=N)N)NC2=O` [[Glu10]GpTx-1(1-34)] (H-DCLGFMRKCEPDNDKCCRPNLVCSRTHKWCKYVF-NH2; disulfide 2-17, 9-23, 16-30), for the setting “Nav1.7 Use IC50”, the IC50 came out at 2 nM.
As for `CC[C@H](C)[C@@H]1NC(=O)[C@@H]2CSSC[C@@H]3NC(=O)[C@H](C(C)C)NC(=O)[C@H](CC(C)C)NC(=O)[C@H](CC(N)=O)NC(=O)[C@@H]4CCCN4C(=O)[C@H](CCCNC(=N)N)NC(=O)[C@H](CSSC[C@H](NC(=O)[C@@H](N)CC(=O)O)C(=O)N[C@@H](CC(C)C)C(=O)NCC(=O)N[C@@H](C4CCCC4)C(=O)N[C@@H](CCSC)C(=O)N[C@@H](CCCNC(=N)N)C(=O)N[C@@H](CCCCN)C(=O)N2)NC(=O)[C@H](CSSC[C@@H](C(=O)N[C@@H](CCCCN)C(=O)N[C@@H](Cc2ccc(O)cc2)C(=O)N[C@H](C(=O)N[C@@H](Cc2ccccc2)C(N)=O)C(C)C)NC(=O)[C@H](Cc2c[nH]c4ccccc24)NC(=O)[C@H](CCCCN)NC(=O)[C@H](Cc2c[nH]cn2)NC(=O)[C@H]([C@@H](C)O)NC(=O)[C@H](CCCNC(=N)N)NC(=O)[C@H](CO)NC3=O)NC(=O)[C@H](CCCCN)NC(=O)[C@H](CC(=O)O)NC(=O)[C@H](CC(N)=O)NC(=O)[C@H](CC(=O)O)NC(=O)[C@@H]2CCCN2C1=O` [[Cpg5]GpTx-1(1-34)], the IC50 (read-out: Nav1.7 Use IC50) came out at 5 nM.
Still for that read-out and setting: the same measure for `CC[C@H](C)[C@@H]1NC(=O)[C@@H]2CSSC[C@@H]3NC(=O)[C@H](C(C)C)NC(=O)[C@H](CC(C)C)NC(=O)[C@H](CC(N)=O)NC(=O)[C@@H]4CCCN4C(=O)[C@H](CCCNC(=N)N)NC(=O)[C@H](CSSC[C@H](NC(=O)[C@@H](N)CC(=O)O)C(=O)N[C@@H](CC(C)C)C(=O)NCC(=O)NCC(=O)N[C@@H](CCSC)C(=O)N[C@@H](CCCNC(=N)N)C(=O)N[C@@H](CCCCN)C(=O)N2)NC(=O)[C@H](CSSC[C@@H](C(=O)N[C@@H](CCCCN)C(=O)N[C@@H](Cc2ccc(O)cc2)C(=O)N[C@H](C(=O)N[C@@H](Cc2ccccc2)C(N)=O)C(C)C)NC(=O)[C@H](Cc2c[nH]c4ccccc24)NC(=O)[C@H](CCCCN)NC(=O)[C@H](Cc2c[nH]cn2)NC(=O)[C@H]([C@@H](C)O)NC(=O)[C@H](CCCNC(=N)N)NC(=O)[C@H](CO)NC3=O)NC(=O)[C@H](CCCCN)NC(=O)[C@H](CC(=O)O)NC(=O)[C@H](CC(N)=O)NC(=O)[C@H](CC(=O)O)NC(=O)[C@@H]2CCCN2C1=O` [SEQ ID NO: 265] (H-DCLGGMRKCIPDNDKCCRPNLVCSRTHKWCKYVF-NH2; disulfide 2-17, 9-23, 16-30): 9 nM.
As to `CC[C@@H]1NC(=O)CNC(=O)[C@H](CC(C)C)NC(=O)[C@@H](NC(=O)[C@@H](N)CC(=O)O)CSSC[C@@H]2NC(=O)[C@@H]3CSSC[C@@H](C(=O)N[C@@H](CCCCN)C(=O)N[C@@H](Cc4ccc(O)cc4)C(=O)N[C@H](C(=O)N[C@@H](Cc4ccccc4)C(N)=O)C(C)C)NC(=O)[C@H](Cc4c[nH]c5ccccc45)NC(=O)[C@H](CCCCN)NC(=O)[C@H](Cc4cnc[nH]4)NC(=O)[C@H]([C@@H](C)O)NC(=O)[C@H](CCCNC(=N)N)NC(=O)[C@H](CO)NC(=O)[C@H](CSSC[C@H](NC(=O)[C@H](CCCCN)NC(=O)[C@H](CCCNC(=N)N)NC(=O)[C@H](CCSC)NC1=O)C(=O)N[C@@H]([C@@H](C)CC)C(=O)N1CCC[C@H]1C(=O)N[C@@H](CC(=O)O)C(=O)N[C@@H](CC(N)=O)C(=O)N[C@@H](CC(=O)O)C(=O)N[C@@H](CCCCN)C(=O)N3)NC(=O)[C@H](C(C)C)NC(=O)[C@H](CC(C)C)NC(=O)[C@H](CC(N)=O)NC(=O)[C@@H]1CCCN1C(=O)[C@H](CCCNC(=N)N)NC2=O` [[2-Abu5]GpTx-1(1-34)], 83 nM corresponded to half-maximal inhibition (Nav1.7 Use IC50) (IC50).

For orientation: IC50 means the concentration at which inhibition is half-maximal.

Source of the values: patent US9340590B2 (priority 2011, dated 2016).
